From US10174016B2 (BAYER AKTIENGESELLSCHAFT, priority 2014, dated 2019)
Read-outs that look alike come from different tables or passages of the source.

Legend:
rat hepatocytes = experiment: In vitro metabolic stability in rat hepatocytes; type: in vitro ADME, Han Wistar rats; conditions: 1 μM, 1.0×10^6 cells/mL, maximal oral bioavailability calculated from half-life
Method: Determination of in vitro metabolic stability in rat hepatocytes (including calculation of hepatic in vivo blood clearance (CL))
Hepatocytes from Han Wistar rats were isolated via a 2-step perfusion method. After perfusion, the liver was carefully removed from the rat: the liver capsule was opened and the hepatocytes were gently shaken out into a Petri dish with ice-cold Williams' medium E (WME). The resulting cell suspension was filtered through sterile gaze in 50 mL falcon tubes and centrifuged at 50×g for 3 min at room temperature. The cell pellet was resuspended in 30 mL WME and centrifuged through a Percoll® gradient for 2 times at 100×g. The hepatocytes were washed again with WME and resuspended in medium containing 5% FCS. Cell viability was determined by trypan blue exclusion.
The test compound was added to a final concentration of 1 μM. […] Samples were frozen at −20° C. overnight, subsequently centrifuged for 15 minutes at 3000 rpm and the supernatant was analyzed with an Agilent 1200 HPLC-system with LCMS/MS detection.
(§1) The half-life of a test compound was determined from the concentration-time plot. From the half-life (kel: slope of concentration-time plot; half-life=ln 2/kel) the intrinsic clearances were calculated. Together with the additional parameters liver blood flow, amount of liver cells in vivo and in vitro.
(§2) Metabolic instability is often the main clearance mechanism of xenobiotica leading to a high CL and low bioavailability which may eventually result in a short half-life and a low exposure after oral administration. Thus, reducing the susceptibility of metabolic degradation usually leads to a more favourable pharmacokinetic profile. When using liver microsomes as incubation matrix main phase I metabolic reactions, typically oxidoreductive reactions by cytochrome P450 enzymes and flavin mono-oxygenases (FMO) and hydrolytic reactions by esterases/amidases/epoxidhydrolases, are described. When the incubation of the test compound is performed in a hepatocyte matrix all potential hepatic metabolic processes (phase I and phase II) are covered.

[1] = In vitro metabolic stability in liver microsomes (calculation of CL and Fmax); type: in vitro ADME, human; conditions: 1 μM, 0.5 mg/mL protein, maximal oral bioavailability calculated from half-life
Method: In Vitro Metabolic Stability Assays Determination of in vitro metabolic stability in microsomes (including calculation of hepatic in vivo blood clearance (CL) and of maximal oral bioavailability (Fmax))
The metabolic assay was started shortly afterwards by adding the test compound to the incubation at a final volume of 1 mL. Organic solvent in the incubations was limited to […] dimethylsulfoxide (DMSO) and ≤1% acetonitrile. […] Samples were frozen at −20° C. overnight, subsequently centrifuged for 15 minutes at 3000 rpm and the supernatant was analyzed with an Agilent 1200 HPLC-system with LCMS/MS detection.
as §1, with “specific” for “amount of”, “weight and microsomal protein content the hepatic” for “cells”, “vivo blood clearance (CL)” for “vivo”, “the maximal oral bioavailability (Fmax) were calculated for the different species.” for “in vitro.”
as §2

[2] = test system: CFA-induced mechanical hyperalgesia; experiment: Rat CFA in vivo model (mechanical hyperalgesia, paw withdrawal threshold); set-up: species or system Male Sprague Dawley rats; conditions: dosed 24 hours after CFA injection
Method: Rat CFA In Vivo Model Male Sprague Dawley rats were used. Mechanical hyperalgesia was induced by injecting 25 μl of Complete Freund's Adjuvant (CFA) into the plantar surface of one hind paw. Mechanical hyperalgesia was measured using the Pressure Application Measurement apparatus (Ugo Basile, Gemonio, Italy). Briefly, a linearly increasing pressure was applied to an area of ˜50 mm2 of the plantar side of the hind paw until a behavioural response (paw withdrawal) was observed or until the pressure reached 1000 gf. The pressure at which the behavioural response occurred was recorded as the “Paw Withdrawal Threshold” (PWT). Both CFA-injected and contralateral PWTs were determined for each rat, in each treatment group and at each time point of the studies. […] Compounds were dosed 24 hours after CFA injection. Data were expressed as the mean PWT for each treatment group and at each time point. Data were analysed by performing a repeated measures two way ANOVA (time×treatment). Planned comparison of means (each versus vehicle) was performed by using a Dunnett's post hoc test, provided that a main effect was detected. […] More preferred examples of the present invention show rat CFA in vivo efficacy in the ‘Paw withdrawal threshold 6 hours post drug’ measure when dosed at 3 mg/kg p.o.

[3] = test system: taste sensation via the tongue; conditions: clinical PhII trials, attributed to blockade of P2X2/3 channels; cited from earlier work
[4] = Human liver cytosol stability assay; type: in vitro ADME; conditions: human liver cytosol 1 mg/mL, 1 or 10 μM, 37° C.
Method: Human Liver Cytosol Stability Assay
Method description: Human liver cytosol (pooled, >30 male and female donors) was incubated with individual test compounds in order to compare the extent of depletion of test compound and formation of the respective oxidised metabolite. […] An incubation volume of 1000 μL was used. The test compound was added from a stock solution in acetonitrile at 1 or 10 μM concentration in the incubation. Incubations were performed at 37° C. Reactions were stopped at 0 h and 4 h after incubation by addition of 100 μL acetonitrile to 250 μL of incubation mixture. Precipitated proteins were removed by centrifugation at approximately 3000 rpm. The supernatants were stored at approximately −20° C. until they were analysed. […]
Data analysis: The depletion of the test compound and formation of the corresponding metabolites were determined by decrease or increase of the corresponding peak area in the chromatogram after UV detection at approximately 300 nm 4 h after incubation compared to that at 0 h after incubation. […]

human P2X3 receptor = human P2X3 receptor (Homo sapiens (Human), UniProt P56373); experiment: Intracellular calcium measurement (FLIPR, Fluo-4) of antagonist activity at human P2X3 receptors; type: cell-based
Chain of human P2X3 receptor (P56373 whole entry): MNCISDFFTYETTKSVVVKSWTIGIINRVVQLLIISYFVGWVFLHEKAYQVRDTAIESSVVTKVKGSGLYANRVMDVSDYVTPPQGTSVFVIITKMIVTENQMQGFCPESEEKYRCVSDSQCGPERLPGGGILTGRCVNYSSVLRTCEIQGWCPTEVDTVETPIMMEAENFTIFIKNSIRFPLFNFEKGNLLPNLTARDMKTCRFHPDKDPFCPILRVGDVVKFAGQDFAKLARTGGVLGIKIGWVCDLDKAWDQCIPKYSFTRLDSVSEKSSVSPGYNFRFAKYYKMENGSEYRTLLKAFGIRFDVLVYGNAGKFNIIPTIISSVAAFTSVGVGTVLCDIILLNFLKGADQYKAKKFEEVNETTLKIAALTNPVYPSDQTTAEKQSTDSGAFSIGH
Procedure, shortened: (§3)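 Antagonism quantified from peak calcium fluorescence (Fluo-4, FLIPR, 90 sec read) evoked by EC80 α,β-Me-ATP, after a 30 min, 37° C. compound pretreatment in 1% DMSO. Human P2X3- or P2X2/3-expressing cells used; triplicate means fitted for IC50, percent maximal inhibition and Hill coefficient.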

human P2X2/3 receptor = human P2X2/3 receptor (Homo sapiens (Human), UniProt P56373+Q9UBL9); experiment: Intracellular calcium measurement (FLIPR, Fluo-4) of antagonist activity at human P2X2/3 receptors; type: cell-based; conditions: human P2X2/3, FLIPR calcium assay, agonist α,β-Me-ATP; read-out: hP2X2/3 IC50
Chain of human P2X2/3 receptor (P56373 whole entry): as above
Chain of human P2X2/3 receptor (Q9UBL9 whole entry): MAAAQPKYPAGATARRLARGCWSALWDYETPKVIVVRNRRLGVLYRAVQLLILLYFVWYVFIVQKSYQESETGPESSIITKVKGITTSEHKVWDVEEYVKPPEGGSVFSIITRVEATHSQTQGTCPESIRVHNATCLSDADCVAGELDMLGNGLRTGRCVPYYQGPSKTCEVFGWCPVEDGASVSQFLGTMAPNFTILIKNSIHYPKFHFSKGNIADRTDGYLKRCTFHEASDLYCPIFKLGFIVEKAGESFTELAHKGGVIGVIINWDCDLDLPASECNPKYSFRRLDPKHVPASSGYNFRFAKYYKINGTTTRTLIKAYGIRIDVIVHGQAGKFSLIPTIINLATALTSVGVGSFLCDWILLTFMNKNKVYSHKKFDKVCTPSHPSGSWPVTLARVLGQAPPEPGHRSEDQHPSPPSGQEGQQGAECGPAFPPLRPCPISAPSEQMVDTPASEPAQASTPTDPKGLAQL
Procedure, shortened: as §3

[5] = Bidirectional Caco-2 cell permeability assay; type: in vitro ADME; conditions: human
Method: Bidirectional Caco-2 Cell Permeability Assay
Caco-2 cells (purchased from DSMZ Braunschweig, Germany) were seeded at a density of 4.5×10^4 cell per well on 24 well insert plates, 0.4 μm pore size, and grown for 15 days in Dulbecco's modified Eagle medium supplemented with 10% fetal bovine serum, 1% GlutaMAX (100×, purchased from GIBCO), 100 U/ml penicillin, 100 μg/ml streptomycin (purchased from GIBCO) and 1% non-essential amino acids (100×). Cells were maintained at 37° C. in a humidified 5% CO2 atmosphere. Medium was changed every 2-3 days. […] Test compounds were dissolved in DMSO and added to the donor chamber representing either the apical or basolateral compartment in a final concentration of 2 μM. Before and after 2 h incubation at 37° C. samples were taken from both compartments (donor and receiver chamber). Analysis of compound concentrations was done after precipitation with methanol. Analysis was performed by high-pressure liquid chromatography and a tandem mass spectrometric detector using an Agilent 1200 liquid chromatography system and an AB Sciex API4000 triple-quadrupole mass spectrometer applying the parameters, which were optimized to achieve maximum signal intensity of the corresponding test compound. Permeability (Papp) was calculated in the apical to basolateral (A→B) and basolateral to apical (B→A) directions. […] The efflux ratio basolateral (B) to apical (A) was calculated by dividing the Papp B-A by the Papp A-B.
The bidirectional Caco-2 cell permeability assay is a well-established method for predicting the in vivo absorption of drugs across the gut wall by measuring the rate of transport of a compound across the Caco-2 monolayer. Since differentiated Caco-2 cells express functional efflux transport proteins like P-gp, they are also used for identification of compounds with efflux liabilities. Intestinal efflux can decrease systemic plasma concentrations of an orally dosed compound by affecting intestinal absorption of a compound.

[6] = human P2X3, FLIPR calcium assay, agonist α,β-Me-ATP, read-out: hP2X3 IC50
[7] = read-out: human P2X3 receptor IC50

Row | Compound | Rat hepatocyte Fmax (rat hepatocytes) [%] | Human liver microsome Fmax [1] [%] | Paw withdrawal threshold 6 hour-post drug ([2]; 3 mg/kg p.o.) | IC50 (human P2X3 receptor; [6]) [nM] | IC50 (human P2X2/3 receptor) [nM] | other results
1 | Cc1cnc(-c2cc(OC(C)C(C)O)cc(C(=O)N[C@H](C)c3ccc(C(F)(F)F)nn3)c2)s1 (single isomer, unassigned) [Example 183] | 43 | 74 |  |  |  | 
2 | CC(O)C(C)Oc1cc(C(=O)N[C@H](C)c2cnc(C(F)(F)F)nc2)cc(-c2ncc(Cl)s2)c1 (single isomer, unassigned) [Example 185] |  |  | 630 ± 81 (*) gf |  |  | 
3 | Cc1cnc(-c2cc(OC(C)C(C)O)cc(C(=O)N[C@H](C)c3cnc(C(F)(F)F)nc3)c2)s1 (single isomer, unassigned) [Example 339] | 52 | 94 |  |  |  | 
4 | Cc1cnc(-c2cc(OC(C)C(C)O)cc(C(=O)N[C@H](C)c3cnc(C(F)(F)F)nc3)c2)s1 (single isomer, unassigned) [Example 340] | 64 | 90 |  |  |  | 
5 | COc1cc(C(C)C)c(Oc2cnc(N)nc2N)cc1S(N)(=O)=O [AF-219] |  |  |  |  |  | effect on taste in treated subjects [3]: leads to taste disturbances
6 | Cc1cnc(-c2cc(O[C@H]3CCOC3)cc(C(=O)N[C@H](C)c3cnc(C(F)(F)F)nc3)c2)s1 [Example 26, 3-(5-Methyl-1,3-thiazol-2-yl)-5-[(3S)-tetrahydrofuran-3-yloxy]-N-{(1R)-1-[2-(trifluoromethyl)pyrimidin-5-yl]ethyl}benzamide] | 56 | 67 |  |  |  | Test compound turnover after 4 h [4]: 12%
7 | Cc1cnc(-c2cc(OC3COC3)cc(C(=O)N[C@H](C)c3cnc(C(F)(F)F)nc3)c2)s1 [Example 48, 3-(5-Methyl-1,3-thiazol-2-yl)-5-(oxetan-3-yloxy)-N-{(1R)-1-[2-(trifluoromethyl)pyrimidin-5-yl]ethyl}benzamide] |  |  | 817 ± 69 gf (****) | 14 | 451 | IC50 (human P2X3 receptor; [7]): 14 nM
8 | Cc1cnc(-c2cc(OC[C@H]3CN(C)CCO3)cc(C(=O)N[C@H](C)c3cnc(C(F)(F)F)nc3)c2)s1 [Example 348, 3-{[(2R)-4-methylmorpholin-2-yl]methoxy}-5-(5-methyl-1,3-thiazol-2-yl)-N-{(1R)-1-[2-(trifluoromethyl)pyrimidin-5-yl]ethyl}benzamide] |  |  | 633 ± 59 gf (*) | 7 | 760 | Paw withdrawal threshold 6 hour-post drug ([2]; 0.3 mg/kg p.o.): 599 ± 47 gf (*); Paw withdrawal threshold 6 hour-post drug ([2]; 1 mg/kg p.o.): 601 ± 28 gf (**); IC50 (human P2X3 receptor; [7]): 7 nM
9 | CCc1cnc(-c2cc(OC[C@H]3CN(C)CCO3)cc(C(=O)N[C@H](C)c3ccc(C(F)(F)F)nn3)c2)s1 [Example 419, 3-(5-ethyl-1,3-thiazol-2-yl)-5-{[(2R)-4-methylmorpholin-2-yl]methoxy}-N-{(1R)-1-[6-(trifluoromethyl)pyridazin-3-yl]ethyl}benzamide] | 51 | 74 |  | 9 | 1140 | efflux ratio at 2 h, 2 μM ([5]; Caco-2, pH 7.2, Papp B-A divided by Papp A-B): 1.7; Papp A→B at 2 h, 2 μM ([5]; Caco-2, apical to basolateral, 2 μM, 2 h, 37° C., pH 7.2): 10.4 ×10⁻⁶ cm/s; Papp B→A at 2 h, 2 μM ([5]; Caco-2, basolateral to apical, 2 μM, 2 h, 37° C., pH 7.2): 17.5 ×10⁻⁶ cm/s
